Data on 18 compounds can be found in ChEMBL document CHEMBL4393733 (Bioorg Med Chem, 2019).

Assay [1] can be described thus: Inhibition of human recombinant N-His-tagged carbonic anhydrase 11 expressed in HEK293T cells using p-nitrophenyl acetate as substrate measured after 30 mins by colorimetric analysis.
The next assay concerns the target Carbonic anhydrase 2 (Homo sapiens, UniProt P00918). Briefly: Inhibition of human recombinant N-HA-tagged carbonic anhydrase 2 expressed in HEK293T cells using p-nitrophenyl acetate as substrate measured after 30 mins by colorimetric analysis.

By IC50 is commonly meant the concentration at which inhibition is half-maximal.

Consider `CNS(=O)(=O)Oc1ccc(-c2ccc3sccc3c2)cc1`, for which the IC50 in assay [1] stood at 0.52 µM; on Carbonic anhydrase 2, 1.21 µM.
In the same order, the values of `CCCS(=O)(=O)Oc1ccc(-c2ccc3sccc3c2)cc1` are 7.55 µM and 0.31 µM.
`O=S(=O)(Oc1ccc(-c2ccc3sccc3c2)cc1)c1ccc(F)cc1`: the IC50 in assay [1] came out at 3.1 µM; on Carbonic anhydrase 2, 2.1 µM.
Taken in the same sequence, the figures for `CN(C)S(=O)(=O)Oc1ccc(-c2ccc3occc3c2)cc1` were 1.71 µM and 1.23 µM.
Turning to `CCS(=O)(=O)Oc1ccc(-c2ccc3sccc3c2)cc1`, the IC50 in assay [1] worked out at 0.14 µM; on Carbonic anhydrase 2 it was 1.3 µM.
In the case of `NS(=O)(=O)Oc1ccc(-c2ccc3sccc3c2)cc1`, the IC50 in assay [1] came out at 0.24 µM; on Carbonic anhydrase 2, 1.32 µM.
As to `O=S(=O)(Oc1ccc(-c2ccc3sccc3c2)cc1)c1ccccc1`, the IC50 in assay [1] was 2.7 µM; at Carbonic anhydrase 2, 1.49 µM.
In the case of `CS(=O)(=O)Oc1ccc(-c2ccc3occc3c2)cc1`, the IC50 in assay [1] was 2.17 µM; on Carbonic anhydrase 2 it was 2.13 µM.
Taken in the same sequence, the figures for `Cc1ccc(S(=O)(=O)Oc2ccc(-c3ccc4sccc4c3)cc2)cc1` were 1.77 µM and 3.3 µM.
For `CCCS(=O)(=O)Oc1ccc(-c2ccc3occc3c2)cc1`, the values for the IC50 (in assay [1]; on Carbonic anhydrase 2) were 0.69 µM and 1.62 µM, respectively.
In the same order, the values of `NS(=O)(=O)Oc1ccc(-c2ccc3occc3c2)cc1` are 1.11 µM and 2.6 µM.
Taken in the same sequence, the figures for `CS(=O)(=O)Oc1ccc(-c2ccc3sccc3c2)cc1` were 1.01 µM and 1.5 µM.
In the same order, the values of `Cc1ccc(S(=O)(=O)Oc2ccc(-c3ccc4occc4c3)cc2)cc1` are 0.28 µM and 0.5 µM.
As to `O=S(=O)(Oc1ccc(-c2ccc3occc3c2)cc1)c1ccccc1`, the IC50 is 0.85 µM in assay [1] and 0.41 µM at Carbonic anhydrase 2.
Taken in the same sequence, the figures for `O=S(=O)(Oc1ccc(-c2ccc3occc3c2)cc1)c1ccc(F)cc1` were 1.6 µM and 0.14 µM.
In the same order, the values of `CN(C)S(=O)(=O)Oc1ccc(-c2ccc3sccc3c2)cc1` are 2.84 µM and 5.82 µM.
Regarding `CCS(=O)(=O)Oc1ccc(-c2ccc3occc3c2)cc1`, the IC50 is 0.13 µM in assay [1] and 1.6 µM at Carbonic anhydrase 2.
Consider `CNS(=O)(=O)Oc1ccc(-c2ccc3occc3c2)cc1`, for which the IC50 was determined as 0.64 µM in assay [1] and 1.04 µM on Carbonic anhydrase 2.
